Data reported in patent publication US20060019972A1, “Methods of treating cancer by inhibiting histone gene expression” (California Institute of Technology, priority 2004, published 2006).
Entries after “also recorded” stand apart in the source; their conditions may differ. Where two headings read alike, the source gives them in different places.

How the values were obtained:
[1] = test system: v-Myb; assay: qRT-PCR of v-Myb expression; format: cell-based
[2] = test system: SW620 cells; assay: Nuclear structure, Hoechst staining and fluorescence microscopy; settings: polyamide 0.5 μM for 72 hours or siRNA transfection
[3] = test system: SW620 colon carcinoma cells; assay: Cell morphology change of SW620 cells (phase contrast microscopy); format: cell-based, human; settings: for Cell morphology change: SW620 cells, 0.5 μM
Description: (§1) Chemotherapeutic molecules, such as DNA alkylators, topoisomerase inhibitors or histone deacetylase inhibitors, alter the morphology and growth characteristics of cancer cells in culture. […] Cells were transfected with 25-100 nM siRNA using the Silencer™ siRNA Transfection Kit (Ambion, Inc.). Cell growth and morphology change were evaluated 72 or 96 hr after transfection by counting cells in a hemocytometer, and by visually inspecting cells in a phase contrast microscope.

[4] = test system: SW620 colon carcinoma cells; assay: Growth arrest / cell counts of SW620 cells; format: cell-based, human; settings: for Growth arrest: SW620 cells, based on cell counts, 0.5 μM
Description: as §1

[5] = test system: histone H4c mRNA in SW620 cells; assay: Real-time quantitative RT-PCR of H4c mRNA; format: cell-based, human
Description: (§2) Quantitative real-time RT-PCR was performed using QuantiTect™ SYBR® Green RT-PCR (Qiagen) as described. […] Temperature cycling and detection of the SYBR® Green emission was performed with a Cepheid SmartCycler® system. Statistical analysis was performed on three independent quantitative RT-PCR experiments for each RNA sample.

[6] = test system: SW620 cell line
[7] = test system: human histone H4c gene (radiolabeled PCR product); format: biochemical
[8] = test system: SW620 colon carcinoma cells
[9] = test system: SW620 cells; assay: Affymetrix U133A microarray analysis of genomic transcription; format: cell-based, human; settings: 0.5 μM, 72 hr
Description: Total RNA from SW620 cells from four pooled culture wells from triplicate experiments was isolated using a Qiagen RNeasy™ Midi kit according to the manufacturer's instructions. […]. Microarray experiments were performed at the DNA Array Core Facility of The Scripps Research Institute using Affymetrix Genechip® Human Genome U133A chips. Data were analyzed using Affymetrix MicroArray® Suite (MAS 5.0) software. RMA values for probe sets were analyzed using Significance Analysis of Microarrays (SAM) 1.21 software (Stanford University).
The effects of polyamide treatment on genomic transcription were monitored by DNA microarray analysis using Affymetrix high-density U133A arrays, which contain oligonucleotides representing approximately 18,000 human genes. […]. Total RNA was isolated, converted into fluorescent cRNA and hybridized to the oligonucleotide microarrays. […]

[10] = test system: SW620 cells; format: cell-based, human; settings: SW620 cells pre-treated, grown without polyamide up to two weeks
Description: Soft agar assays were performed in 6-well culture dishes using SeaPlaque low-melting temperature agarose (Cambrex Bio Science Rocklarid, Inc.). The cell growth medium was supplemented with 20% fetal bovine serum. Cells were treated for 5 days with or without polyamide, harvested by trypsin treatment, and counted using a hemocytometer. […] Cells were gently mixed by pipetting and quickly transferred to the culture dish containing a thin layer (0.5 ml) of solidified 0.5% agarose in medium. Cultures were incubated for 1-2 weeks prior to visualization by microscopy.
Equal numbers of untreated and polyamide-treated cells were inoculated into soft agar (without polyamide), and grown for up to two weeks.

[11] = test system: K562; assay: G2/M cell cycle arrest by FACS analysis; format: cell-based, human
[12] = test system: K562; assay: Growth inhibition; format: cell-based, human
[13] = test system: H4c mRNA in K562; format: cell-based, human
Description: as §2

[14] = SW620, 25-100 nM siRNA, 72 or 96 hr

## 5′-GGGCAUUACAAAACCGGCUtt-3′ [HIST1H4C-1]
[1]
  effect on v-Myb transcription / expression: down regulated v-Myb transcription
[2]
  effect on size of the cell nucleus: caused a similar enlargement of the cell nucleus
[3]; [14]
  cell morphology change after siRNA transfection: caused a morphological change
[4]; [14]
  cell number / growth after siRNA transfection: decreased
[4]; SW620, after 3 days
  reduction in cell number relative to untreated cells: 73 (+1-5) %
[4]; SW620, siRNA transfection, untreated = 100%
  Relative cell number: 37%
[5]; SW620, quantitative RT-PCR
  down regulation of H4c mRNA compared to scrambled sequence siRNA: ~8.6 fold
[5]; SW620 cells
  down regulation of H4c transcription sufficient to cause growth arrest: 2 fold

## Cc1cc(C)n2c1C=C1C=CC(CCCCC(=O)N[C@H](CCNC(=O)c3nc(NC(=O)CCNC(=O)c4nc(NC(=O)c5nccn5C)cn4C)cn3C)C(=O)Nc3cc(C(=O)Nc4cc(C(=O)Nc5cc(C(=O)Nc6cc(C(=O)NCCC(=O)NCCCN(C)C)n(C)c6)n(C)c5)n(C)c4)n(C)c3)=[N+]1[B-]2(F)F [1R-bobipy]
[6]
  entry into the nucleus: entered the nucleus

## Cc1cc(C)n2c1C=C1C=CC(CCCCC(=O)N[C@@H](CCNC(=O)c3nc(NC(=O)CCNC(=O)c4nc(NC(=O)c5nccn5C)cn4C)cn3C)C(=O)Nc3cc(C(=O)Nc4cc(C(=O)Nc5cc(C(=O)Nc6cc(C(=O)NCCC(=O)NCCCN(C)C)n(C)c6)n(C)c5)n(C)c4)n(C)c3)=[N+]1[B-]2(F)F [1S-bodipy]
[6]
  entry into the nucleus: entered the nucleus

## CN(C)CCCNC(=O)CCNC(=O)c1cc(NC(=O)c2nc(NC(=O)CCNC(=O)c3cc(NC(=O)c4cc(NC(=O)[C@@H](CCNC(=O)c5cc(NC(=O)c6nc(NC(=O)CCNC(=O)c7cc(NC(=O)c8nccn8C)cn7C)cn6C)cn5C)NC(=O)CCCc5ccc(N(CCCl)CCCl)cc5)cn4C)cn3C)cn2C)cn1C [2-Chl, ImPy-βImPy-(R-2,4-Daba^Chl)-PyPyβImPy-βDp]
[3]
  Cell morphology change: no
[4]
  Growth arrest: no

## CN(C)CCCNC(=O)CCNC(=O)c1cc(NC(=O)c2cc(NC(=O)c3cc(NC(=O)c4cc(NC(=O)[C@@H](CCNC(=O)c5cc(NC(=O)c6cc(NC(=O)c7cc(NC(=O)c8nccn8C)cn7C)cn6C)cn5C)NC(=O)CCCc5ccc(N(CCCl)CCCl)cc5)cn4C)cn3C)cn2C)cn1C [4-Chl]
[7]
  alkylation of the H4c PCR product on either strand: fail to significantly alkylate
[8]
  cytotoxicity: highly cytotoxic
[4]
  Growth arrest: cytotoxic

## CN(C)CCCNC(=O)CCNC(=O)c1cc(NC(=O)c2cc(NC(=O)c3cc(NC(=O)c4cc(NC(=O)[C@@H](CCNC(=O)c5cc(NC(=O)c6nc(NC(=O)c7cc(NC(=O)c8nccn8C)cn7C)cn6C)cn5C)NC(=O)CCCc5ccc(N(CCCl)CCCl)cc5)cn4C)cn3C)cn2C)cn1C [5-Chl]
[7]
  alkylation of the H4c PCR product on either strand: fail to significantly alkylate
[8]
  cytotoxicity: highly cytotoxic
[4]
  Growth arrest: cytotoxic

## CN(C)CCCNC(=O)CCNC(=O)c1cc(NC(=O)c2cc(NC(=O)c3cc(NC(=O)c4cc(NC(=O)[C@@H](CCNC(=O)c5nc(NC(=O)c6nc(NC(=O)c7cc(NC(=O)c8nccn8C)cn7C)cn6C)cn5C)NC(=O)CCCc5ccc(N(CCCl)CCCl)cc5)cn4C)cn3C)cn2C)cn1C [6-Chl]
[3]
  Cell morphology change: abolished the morphological change and growth arrest and no
[4]
  Growth arrest: abolished the morphological change and growth arrest; also recorded: slight

## O=C(O)CCCc1ccc(N(CCCl)CCCl)cc1 [Chl, chlorambucil, reference compound]
[9]
  genes whose transcription was affected: a large number of genes
[8]; concentrations higher than 0.5 μM
  cytotoxicity: cytotoxic at higher concentrations
[3]
  Cell morphology change: without effect
[4]
  Growth arrest: without effect
[10]
  growth in soft agar: formed colonies

## CN(C)CCCNC(=O)CCNC(=O)c1cc(NC(=O)c2cc(NC(=O)c3cc(NC(=O)c4nc(NC(=O)C(CCNC(=O)c5cc(NC(=O)c6cc(NC(=O)c7nc(NC(=O)c8nccn8C)cn7C)cn6C)cn5C)NC(=O)CCCc5ccc(N(CCCl)CCCl)cc5)cn4C)cn3C)cn2C)cn1C (stereo not drawn) [ImImPyPy-(R-2,4-Daba^Chl)-ImPyPyPy-β-Dp]
[7]; sites of the form 5′-WGGWCN-3′
  alkylation of the H4c gene in vitro: alkylate multiple sites in the H4c gene
[11]
  cell cycle arrest: causes growth and cell cycle arrest
[12]
  Growth arrest: causes growth and cell cycle arrest
[13]
  effect on H4c gene transcription: down regulates H4c gene transcription
